Assay results published in patent US11051515B2, “3-acyl-benzamides and their use as herbicides” (Bayer Aktiengesellschaft, priority 2017, dated 2021).

Experiments:
ALOMY [1] = assay: Pre-emergence action against ALOMY; assay type: in vivo, Alopecurus myosuroides; conditions: dosage 320 g/ha, pre-emergence, scored visually after 3 weeks vs untreated controls, 100% = plants have died, 0% = like control plants
Method in brief: (§1)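 Seeds sown in sandy loam in wood-fiber pots and covered with soil. Greenhouse growth; visual damage scored after 3 weeks versus untreated controls (100% = dead, 0% = like control).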

AVEFA [2] = assay: Pre-emergence action against AVEFA; assay type: in vivo, Avena fatua; conditions: dosage 320 g/ha, scored visually after 3 weeks vs untreated controls
Method in brief: as §1

CYPES [3] = assay: Pre-emergence action against CYPES; assay type: in vivo, Cyperus esculentus; conditions: pre-emergence, dosage 320 g/ha, scored visually after 3 weeks vs untreated controls
Method in brief: as §1

ECHCG [4] = assay: Pre-emergence action against ECHCG; assay type: in vivo, Echinochloa crus-galli; conditions: pre-emergence, dosage 320 g/ha, scored visually after 3 weeks vs untreated controls
Method in brief: as §1

LOLMU [5] = assay: Pre-emergence action against LOLMU; assay type: in vivo, Lolium multiflorum; conditions: dosage 320 g/ha, scored visually after 3 weeks vs untreated controls
Method in brief: as §1

SETVI [6] = assay: Pre-emergence action against SETVI; assay type: in vivo, Setaria viridis; conditions: pre-emergence, dosage 320 g/ha, scored visually after 3 weeks vs untreated controls
Method in brief: as §1

ABUTH [7] = assay: Pre-emergence action against ABUTH; assay type: in vivo, Abutilon theophrasti; conditions: pre-emergence, dosage 320 g/ha, scored visually after 3 weeks vs untreated controls
Method in brief: as §1

AMARE [8] = assay: Pre-emergence action against AMARE; assay type: in vivo, Amaranthus retroflexus; conditions: pre-emergence, dosage 320 g/ha, scored visually after 3 weeks vs untreated controls
Method in brief: as §1

MATIN [9] = assay: Pre-emergence action against MATIN; assay type: in vivo, Matricaria inodora; conditions: Dosage 320 g/ha, pre-emergence
Method in brief: as §1

PHBPU [10] = assay: Pre-emergence action against PHBPU; assay type: in vivo, Pharbitis purpurea; conditions: Dosage 320 g/ha, pre-emergence
Method in brief: as §1

STEME [11] = assay: Pre-emergence action against STEME; assay type: in vivo, Stellaria media; conditions: Dosage 320 g/ha, pre-emergence
Method in brief: as §1

VIOTR [12] = assay: Pre-emergence action against VIOTR; assay type: in vivo, Viola tricolor; conditions: Dosage 320 g/ha, pre-emergence
Method in brief: as §1

VERPE [13] = assay: Pre-emergence action against VERPE; assay type: in vivo, Veronica persica; conditions: Dosage 320 g/ha, pre-emergence
Method in brief: as §1

ALOMY [14] = assay: Post-emergence action against ALOMY; assay type: in vivo, Alopecurus myosuroides; conditions: Dosage 80 g/ha, post-emergence
Method in brief: (§2)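 Weeds grown in sandy loam in greenhouse, treated at one-leaf stage (2–3 weeks after sowing) with WP or EC formulations sprayed as aqueous suspension/emulsion at 600 to […] water with 0.2% wetting agent. Visual rating after about 3 weeks versus untreated controls, as % herbicidal action (100% = plants dead, 0% = like control).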

AVEFA [15] = assay: Post-emergence action against AVEFA; assay type: in vivo, Avena fatua; conditions: post-emergence, dosage 80 g/ha, visual assessment about 3 weeks after treatment vs untreated controls
Method in brief: as §2

CYPES [16] = assay: Post-emergence action against CYPES; assay type: in vivo, Cyperus esculentus; conditions: post-emergence, dosage 80 g/ha, visual assessment about 3 weeks after treatment vs untreated controls
Method in brief: as §2

ECHCG [17] = assay: Post-emergence action against ECHCG; assay type: in vivo, Echinochloa crus-galli; conditions: post-emergence, dosage 80 g/ha, visual assessment about 3 weeks after treatment vs untreated controls
Method in brief: as §2

LOLMU [18] = assay: Post-emergence action against LOLMU; assay type: in vivo, Lolium multiflorum; conditions: dosage 80 g/ha, visual assessment about 3 weeks after treatment vs untreated controls
Method in brief: as §2

SETVI [19] = assay: Post-emergence action against SETVI; assay type: in vivo, Setaria viridis; conditions: post-emergence, dosage 80 g/ha, visual assessment about 3 weeks after treatment vs untreated controls
Method in brief: as §2

ABUTH [20] = assay: Post-emergence action against ABUTH; assay type: in vivo, Abutilon theophrasti; conditions: post-emergence, dosage 80 g/ha, visual assessment about 3 weeks after treatment vs untreated controls
Method in brief: as §2

AMARE [21] = assay: Post-emergence action against AMARE; assay type: in vivo, Amaranthus retroflexus; conditions: post-emergence, dosage 80 g/ha, visual assessment about 3 weeks after treatment vs untreated controls
Method in brief: as §2

MATIN [22] = assay: Post-emergence action against MATIN; assay type: in vivo, Matricaria inodora; conditions: post-emergence, dosage 80 g/ha, visual assessment about 3 weeks after treatment vs untreated controls
Method in brief: as §2

PHBPU [23] = assay: Post-emergence action against PHBPU; assay type: in vivo, Pharbitis purpurea; conditions: post-emergence, dosage 80 g/ha
Method in brief: as §2

POLCO [24] = assay: Post-emergence action against POLCO; assay type: in vivo, Polygonum convolvulus; conditions: post-emergence, dosage 80 g/ha
Method in brief: as §2

STEME [25] = assay: Post-emergence action against STEME; assay type: in vivo, Stellaria media; conditions: post-emergence, dosage 80 g/ha
Method in brief: as §2

VIOTR [26] = assay: Post-emergence action against VIOTR; assay type: in vivo, Viola tricolor; conditions: post-emergence, dosage 80 g/ha
Method in brief: as §2

VERPE [27] = assay: Post-emergence action against VERPE; assay type: in vivo, Veronica persica; conditions: dosage 80 g/ha
Method in brief: as §2

POLCO [28] = assay: Pre-emergence action against POLCO; assay type: in vivo, Polygonum convolvulus; conditions: Fallopia convolvulus, 504 h; Dosage 320 g/ha, pre-emergence
Method in brief: as §1

CCC(=O)c1c(C(F)(F)F)ccc(C(=O)Nc2nnnn2CC)c1C [2-15]
Pre-emergence action against ALOMY (herbicidal activity in percent) (ALOMY [1]): 100%
Pre-emergence action against AVEFA (herbicidal activity) (AVEFA [2]): 100%
Pre-emergence action against CYPES (herbicidal activity) (CYPES [3]): 90%
Pre-emergence action against ECHCG (herbicidal activity) (ECHCG [4]): 100%
Pre-emergence action against LOLMU (herbicidal activity) (LOLMU [5]): 100%
SETVI (Table B8, pre-emergence herbicidal activity) (SETVI [6]): 100%
Pre-emergence action against ABUTH (herbicidal activity) (ABUTH [7]): 100%
Pre-emergence action against AMARE (herbicidal activity) (AMARE [8]): 100%
Pre-emergence action against MATIN (MATIN [9]): 100%
Pre-emergence action against PHBPU (PHBPU [10]): 80%
Pre-emergence action against STEME (STEME [11]): 100%
Pre-emergence action against VIOTR (VIOTR [12]): 100%
Pre-emergence action against VERPE (VERPE [13]): 100%
Post-emergence action against ALOMY (ALOMY [14]): 100%
Post-emergence action against AVEFA (herbicidal action in percent) (AVEFA [15]): 80%
Post-emergence action against CYPES (herbicidal action in percent) (CYPES [16]): 90%
Post-emergence action against ECHCG (herbicidal action in percent) (ECHCG [17]): 90%
Post-emergence action against LOLMU (herbicidal action in percent) (LOLMU [18]): 90%
Post-emergence action against SETVI (herbicidal action in percent) (SETVI [19]): 100%
Post-emergence action against ABUTH (herbicidal action in percent) (ABUTH [20]): 100%
Post-emergence action against AMARE (herbicidal action in percent) (AMARE [21]): 90%
Post-emergence action against MATIN (herbicidal action in percent) (MATIN [22]): 90%
Post-emergence action against PHBPU (PHBPU [23]): 80
Post-emergence action against POLCO (POLCO [24]): 100
Post-emergence action against STEME (STEME [25]): 100
Post-emergence action against VIOTR (VIOTR [26]): 100
Post-emergence action against VERPE (VERPE [27]): 90

CC(=O)c1c(Cl)ccc(C(=O)Nc2nnnn2C)c1Cl [1-114]
pest or weed control at 320 g/ha (ALOMY [1]; Alopecurus myosuroides, 504 h, read-out: Pre-emergence action against ALOMY (herbicidal activity in percent)): 90%
pest or weed control at 320 g/ha (AVEFA [2]; Avena fatua, 504 h, read-out: Pre-emergence action against AVEFA (herbicidal activity)): 100%
pest or weed control at 320 g/ha (CYPES [3]; Cyperus esculentus, 504 h, read-out: Pre-emergence action against CYPES (herbicidal activity)): 100%
pest or weed control at 320 g/ha (ECHCG [4]; Echinochloa crus-galli, 504 h, read-out: Pre-emergence action against ECHCG (herbicidal activity)): 100%
pest or weed control at 320 g/ha (LOLMU [5]; Lolium multiflorum, 504 h, read-out: Pre-emergence action against LOLMU (herbicidal activity)): 100%
pest or weed control at 320 g/ha (SETVI [6]; Setaria viridis, 504 h, read-out: SETVI (Table B8, pre-emergence herbicidal activity)): 100%
pest or weed control at 320 g/ha (ABUTH [7]; Abutilon theophrasti, 504 h, read-out: Pre-emergence action against ABUTH (herbicidal activity)): 100%
pest or weed control at 320 g/ha (AMARE [8]; Amaranthus retroflexus, 504 h, read-out: Pre-emergence action against AMARE (herbicidal activity)): 100%
pest or weed control at 320 g/ha (MATIN [9]; Tripleurospermum inodorum, 504 h): 100%
pest or weed control at 320 g/ha (POLCO [28]): 90%
pest or weed control at 320 g/ha (STEME [11]; Stellaria media, 504 h): 90%
pest or weed control at 320 g/ha (VIOTR [12]; Viola tricolor, 504 h): 100%
pest or weed control at 320 g/ha (VERPE [13]; Veronica persica, 504 h): 100%
pest or weed control at 80 g/ha (ALOMY [14]; Alopecurus myosuroides, 504 h): 80%
pest or weed control at 80 g/ha (AVEFA [15]; Avena fatua, 504 h, read-out: Post-emergence action against AVEFA (herbicidal action in percent)): 90%
pest or weed control at 80 g/ha (CYPES [16]; Cyperus esculentus, 504 h, read-out: Post-emergence action against CYPES (herbicidal action in percent)): 80%
pest or weed control at 80 g/ha (ECHCG [17]; Echinochloa crus-galli, 504 h, read-out: Post-emergence action against ECHCG (herbicidal action in percent)): 90%
pest or weed control at 80 g/ha (LOLMU [18]; Lolium multiflorum, 504 h, read-out: Post-emergence action against LOLMU (herbicidal action in percent)): 100%
pest or weed control at 80 g/ha (SETVI [19]; Setaria viridis, 504 h, read-out: Post-emergence action against SETVI (herbicidal action in percent)): 80%
pest or weed control at 80 g/ha (ABUTH [20]; Abutilon theophrasti, 504 h, read-out: Post-emergence action against ABUTH (herbicidal action in percent)): 80%
pest or weed control at 80 g/ha (MATIN [22]; Tripleurospermum inodorum, 504 h, read-out: Post-emergence action against MATIN (herbicidal action in percent)): 80%
pest or weed control at 80 g/ha (PHBPU [23]; Ipomoea purpurea, 504 h): 90%
pest or weed control at 80 g/ha (POLCO [24]; Fallopia convolvulus, 504 h): 90%
pest or weed control at 80 g/ha (STEME [25]; Stellaria media, 504 h): 100%
pest or weed control at 80 g/ha (VIOTR [26]; Viola tricolor, 504 h): 90%
pest or weed control at 80 g/ha (VERPE [27]; Veronica persica, 504 h): 100%
